Experimental data: patent US11135231B2, “Methods and compositions for prevention and treatment of Apicomplexan infections” (Tufts Medical Center, Inc., priority 2016, dated 2021)

Columns and labels:
[1] = test system: Cryptosporidium parvum; test: Host cell ATP assay (CellTiter-Glo) of C. parvum-infected Caco2 cells; type: cell-based; conditions: Caco-2, host cell ATP at 48 h post-infection, read-out: EC50 against C. parvum
Protocol: (§1) The effect of Tartrolon D/E on Cryptosporidium proliferation was evaluated by measuring host cell ATP levels (CellTiter-Glo® Luminescent Cell Viability Assay, Promega). Caco2 cells, having been infected with 2×10^5 C. parvum oocysts for 7 hours, were treated with dilutions of tartrolon D/E or DMSO (control) and cellular ATP levels were measured at the 48-hour time point post-infection.

[2] = test system: Cryptosporidium parvum; test: Morphology of C. parvum parasites after treatment (immunofluorescence); type: cell-based; conditions: 100 nM, 9 hours (FIG. 6B)
Text: Insets (upper right in each image) are enlargements of boxed regions (dashes). Red: Rabbit α gp15 detected with Alexafluor 594-conjugated goat anti-rabbit IgG secondary antibody; blue: DAPI; scale=20 μm; insets=5 μm.
(§2) The morphology of treated parasites (FIG. 6B) was similar to that seen with T. gondii, in which the vacuole contained intact nuclei but no intact merozoites.

[3] = test system: P. falciparum strains; test: 3H hypoxanthine incorporation assay of P. falciparum strains in human red blood cells; type: cell-based, Plasmodium falciparum
Protocol: The potency of the compounds of the invention against multi-drug resistant P. falciparum strains was tested. Parasites were cultured in 96-well plates in human red blood cells at 0.5% initial parasitemia for 72 hours in the presence of dilutions of tartrolon D/E (specifically, D2 as the starting material in FIG. 11A), purified tartrolon E (FIG. 11C), dihydroartemisinin (DHA, as a positive control in FIG. 11B), or DMSO (as a negative control). Parasites proliferation was then determined by ^3H hypoxanthine incorporation.
Specifically, parasitized red blood cells (pRBCs) were grown in 0.5% Albumax I (Thermo Fisher Scientific). Assays were set up in 96-well plates at 0.5% initial parasitemia and 0.5% hematocrit. Parasites were exposed to various concentrations of Tartrolon D or E and dihydroartemisinin (DHA) for 48 hours and then pulsed with 0.5 microcuries of tritium-labeled hypoxanthine Moravek (MT-700) for another 24 hours. At the end of 72 hours, assay plates were processed through an Inotech cell harvester and collected on Inotech glass fiber filters. Filters were transferred to Omniplate-96 cassettes (Perkin Elmer) and dried overnight at room temperature. About […] of Microscint-O scintillation cocktail (Perkin Elmer) was added to each well. Each well was counted for 2 minutes on a Packard Topcount scintillation counter. The uptake of radiolabeled hypoxanthine by compound-treated pRBCs was compared relative to uptake by DMSO solvent-treated controls. […] The starting material used as the active reagent in FIG. 11C was tartrolon E, purified as follows: extract from the bacterial pellet of the Teredinibacter turnerae T7901 was purified by reversed phase HPLC using diode array detection. A C18 column (Phenomenex CHO-7878, 100×10 mm) was employed with an isocratic mobile phase (85% acetontrile in water, 3.5 mL/min) to yield tartrolon E (4.7 mg, retention time 8 min).

[4] = test system: three human tumor cell lines; conditions: cited from earlier work
[5] = test system: Toxoplasma gondii; test: Immunofluorescence assay (anti-SAG1) of T. gondii-infected HFF cells; type: cell-based; conditions: T. gondii in HFF cells, FIG. 4B/4C
Protocol: FIGS. 2B and 2C show results for experiments that were conducted as for FIG. 2A, except that 24 hours after addition of the fractions, the infected HFF cells were processed for immunofluorescence assays. Briefly, infected and treated HFF cells that had been grown on coverslips in 6-well plates were fixed with methanol and parasites were detected using antibody to the SAG1 T. gondii surface antigen that was then detected with a red-fluorescence tagged secondary antibody. Host nuclei were stained with blue fluorescent marker DAPI (4′,6-diamidino-2-phenylindole). Host nuclei were clearly visible (blue) in all cell populations in both FIGS. 2B and 2C. Consistent with the trypan blue results, extensive red fluorescence was visible in cells treated with the control (DMSO) in FIG. 2C, meaning these cells were highly infected with the parasites.

[6] = test system: T. gondii; test: MTS host cell viability readout of T. gondii-infected HFF cells; type: cell-based; conditions: Toxoplasma gondii, read-out: effective concentration at which 50% of the host cells survived (EC50)
Protocol: (§3) Readouts of host cell viability were used to quantify the dose-response of tartrolon D/E against T. gondii. Human foreskin fibroblast (HFF) cells, after having been infected by T. gondii for 24 hours, were treated with dilutions of tartrolon D/E that have been purified as in Example 2, or DMSO (control) for 72 hours. Host cell viability was then measured by MTS assay (CellTiter 96® AQueous One Solution Cell Proliferation Assay, Promega). The effective concentration at which 50% of the host cells survived (EC50) was about 5 nM (FIG. 4A).

[7] = test system: HFF cell; test: HFF cell viability by MTS assay; type: cell-based, human; conditions: at the concentrations tested
Protocol: as §3
At the concentrations tested, tartrolon D/E had no effect on HFF cell viability as measured by MTS assay, indicating likely safety for in vivo administration. […] The aberration in the parasite morphology, stark when compared to untreated cell infection shown in the left columns of FIGS. 4B and 4C, provides direct evidence of irreversible inhibition and killing of the target parasite by compounds of the invention.

[8] = test system: Caco2 cell; test: Caco2 cell viability; type: cell-based; conditions: concentrations up to 500 nM
Protocol: as §1, §2

[9] = test system: Bovine Turbinate (BT) cells (ATCC #CRL-1390); test: Toxicity for mammalian cells, CellTiter Glo cell viability assay; type: cell-based; conditions: 24 hours
Protocol: Toxicity of the compounds of the invention for mammalian cells was determined. Bovine Turbinate (BT) cells (ATCC #CRL-1390) are a primary cell line (not a transformed cancer cell line) and were used to provide a preliminary evaluation of the toxicity of tartrolon D/E for mammalian cells. Briefly, BT cells were cultured in the presence of increasing starting concentrations of Tartrolon D/E for 24 hours. Cell proliferation was measured using CellTiter Glo Cell Viability Assay (Promega) and the data was analyzed with GraphPad Prism.

[10] = test system: Plasmodium berghei; test: Plasmodium berghei-luciferase infection in mice, IVIS imaging; type: in vivo; conditions: IVIS image FIG. 14B, 1 of the 4 control mice
Protocol: Mice were infected with Plasmodium berghei expressing luciferase. 48 hours post infection mice were treated with tartrolon D/E (specifically, D2) initially solubilized in 2% methylcellulose and 0.5% Tween80 by intraperitoneal injection for 5 days, once per day. Control mice were treated with vehicle alone. Seven days after infection, mice were given luciferase substrate (150 mg/kg D-luciferin Potassium salt in PBS (Goldbio)) and imaged in an IVIS Lumina II to quantify level of infection.

[11] = test system: apicomplexan parasites tested; test: Summary of in vitro EC50 against the apicomplexan parasites tested; type: cell-based; conditions: general range
Text: For therapeutic purposes, the compounds of the invention may be formulated into a pharmaceutical composition, by mixing a therapeutically effective amount of the compound(s) of the invention with a pharmaceutically acceptable excipient, carrier, or diluent, and optionally in combination with one or more additional active agents, e.g., a second anti-parasitic agent. […] With an EC50 value as low as the picomolar to nanomolar level provides further confidence that the active ingredients, once administered in vivo, would likely achieve the expected anti-parasitic effects. According to an aspect of the present invention, tartrolon D and/or tartrolon E can be used as a therapeutic for treatment or prevention of human and animal diseases caused by various protozoan parasites.

Row | SMILES | EC50 [1] | morphology of treated parasites [2] | EC50 ([3]; Plasmodium falciparum, 3D7, Erythrocyte, parasite line 3D7) | EC50 ([3]; Plasmodium falciparum, DD2, Erythrocyte, parasite line Dd2) | EC50 ([3]; Plasmodium falciparum, Erythrocyte, parasite line 7G8) | EC50 ([3]; Plasmodium falciparum, Erythrocyte, parasite line 2012 Indian Isolate (Goa)) | EC50 ([3]; Plasmodium falciparum, Erythrocyte, parasite line D6) | EC50 ([3]; Plasmodium falciparum, Erythrocyte, parasite line V1S) | EC50 ([3]; Plasmodium falciparum, HB3, Erythrocyte, parasite line HB3) | EC50 ([3]; Plasmodium falciparum, NF54, Erythrocyte, parasite line NF54) | EC50 ([3]; Plasmodium falciparum, TM90C2A, Erythrocyte, parasite line TM90C2A) | EC50 ([3]; parasite line 3D7) | cytotoxic activity [4] | parasite morphology [5] | EC50 [6] | effect on HFF cell viability [7] | effect on Caco2 cell viability [8] | toxic dose at which 50% of the cells were killed [9] | treated mice with significant areas with no parasites [10] | EC50 [11]
1 | C[C@@H]1C(=O)C[C@@H](O)CC/C=C/C=C\CC[C@H](C)OC(=O)C(O)[C@]2(O)O[C@@H](CC[C@H]2C)[C@H](C)C(=O)C[C@@H](O)CC/C=C/C=C\CC[C@H](C)OC(=O)C(O)[C@]2(O)O[C@H]1CC[C@H]2C (some centres unmarked) [Tartrolon D, tartrolon D] | ~12 nM | most parasites did not progress past the single cell stage | 0.11 nM | 0.28 nM | 0.18 nM | 0.26 nM | 0.14 nM | 0.31 nM | 0.13 nM | 0.2 nM | 0.16 nM | 0.19 nM | strong cytotoxic activity |  |  |  |  |  |  | 
2 | C[C@@H]1C(=O)C[C@@H](O)CC/C=C/C=C\CC[C@H](C)OC(=O)C(O)[C@]2(O)O[C@@H](CC[C@H]2C)[C@H](C)C(=O)C[C@@H](O)CC/C=C/C=C\CC[C@H](C)OC(=O)C(O)[C@]2(O)O[C@H]1CC[C@H]2C (some centres unmarked) [Tartrolon D/E] |  |  |  |  |  |  |  |  |  |  |  |  |  | aberrant morphology | ~5 nM | no effect | no effect | 1.14 µM | 4 of the 5 | 0.1 to 16 nM
